How the values were obtained:
[1] = tested on: Human keratinocytes; assay: Migration of human keratinocytes after scratch (gap closure); type: cell-based; conditions: for % Gap Closure: 100 ppm taurine in DMEM
Description: Human keratinocytes are cultured in DMEM medium supplemented with 10% FBS and 1% of antibiotic at 37° C. under a 5% CO2 atmosphere in petri dishes. Once the cells are 80-90% confluent, a scratch is made horizontally and a scratch is made vertically across the layer of cells. 1 ml of a test solution is added to the culture, and the cells are further incubated and monitored by photomicroscopy to evaluate the closure of the gap created by the scratches. The test solutions compared are 100 ppm Taurine in DMEM medium and untreated DMEM medium. The results are shown in Table 4 below, expressed as the average width of the gap as a percentage of the initial width of the gap (at 0 hours).

[2] = tested on: HSP 27; assay: HSP 27 assay in scratched (damaged) human gingival tissue, supernatant level; type: cell-based; conditions: for Concentration of HSP 27: scratched gingival tissue
Description: A scratching protocol was used to damage and stress human gingival tissue (MatTek Corporation). Taurine, at two doses, (50 ppm and 200 ppm), was applied to the culture medium containing the tissue. The treated tissue was incubated at 37° C. to promote tissue healing. Cell supernatant was collected at various time points and the level of HSP 27 was measured.

[3] = tested on: HSP-27; assay: Intracellular HSP27 expression in scratched keratinocytes (ELISA); type: cell-based, human; conditions: for HSP-27, intracellular: 50 ppm taurine
Description: Human keratinocytes are cultured in DMEM medium supplemented with 10% FBS and 1% of antibiotic at 37° C. under a 5% CO2 atmosphere in petri dishes. Once the cells are 80-90% confluent, a scratch is made horizontally and a scratch is made vertically across the layer of cells. […] […] The cell suspension is then homogenized with metal beads for 5 minutes and then analyzed for HSP27 using ELISA. In both untreated and arginine treated cells, scratching induces a strong increase in intracellular HSP-27 expression at one hour which declines at 4 hours. […] Without being bound by theory, Applicants believe that it is this initial burst of HSP-27 expression at the time of physical injury that contributes to improved wound healing.

NCCS(=O)(=O)O [Taurine, 2-aminoethanesulfonic acid]
Speed of gap closure compared to the DMEM control (in words) ([1]; 100 ppm taurine): significantly faster | % Gap Closure ([1]; 24 hr after scratch): 23% | % Gap Closure ([1]; 48 hr after scratch): 71% | % Gap Closure ([1]; 144 hr after scratch): 100% | Difference in HSP 27 production between the two concentrations of taurine (in words) ([2]; 50 ppm versus 200 ppm): no significant difference | Effect on production of HSP 27 versus untreated, scratched tissue (in words) ([2]; both doses tested (50 ppm and 200 ppm), 1 hour and 4 hours): significantly accelerated the production of HSP 27 | Concentration of HSP 27 ([2]; taurine 50 ppm, incubation time 0 hr): 10.05 ng/mL | Concentration of HSP 27 ([2]; taurine 50 ppm, incubation time 1 hr): 180.33 ng/mL | Concentration of HSP 27 ([2]; taurine 50 ppm, incubation time 4 hr): 269.64 ng/mL | Concentration of HSP 27 ([2]; taurine 200 ppm, incubation time 0 hr): 6.19 ng/mL | Concentration of HSP 27 ([2]; taurine 200 ppm, incubation time 1 hr): 196.95 ng/mL | Concentration of HSP 27 ([2]; taurine 200 ppm, incubation time 4 hr): 275.17 ng/mL | HSP-27, intracellular ([3]; time 0 hr): 23.59 ng/mL | HSP-27, intracellular ([3]; time 1 hr): 69.65 ng/mL

N=C(N)NCCC[C@H](N)C(=O)O [arginine]
Intracellular HSP-27 expression versus untreated cells (in words) [3]: significantly higher expression of HSP-27
